The experiment concerns the target T1, human FOXO1 (constitutively active form Thr24Ala, Ser256Ala, Ser319Ala) (Homo sapiens, UniProt Q12778, S256A/S319A/T24A).
T1 construct: expressed in transfected cells; host or cells: HEK293 cells transfected with pcDNA3.1 plasmid
The experiment in a line: FOXO1 inhibitor activity assay: cell-based transcriptional (luciferase) reporter assay in HEK293 cells. As to conditions: HEK293 cells transfected with insulin response element firefly luciferase reporter, FOXO1 and Renilla luciferase; 10-point dose response 50 μM to 2.5 nM; 24 hours. The essentials:
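IC50 and maximal inhibition were fitted by 4-parameter logistic regression on normalized firefly/Renilla luciferase ratios. The 0% reference used RFP in place of FOXO1, and the 100% reference was DMSO-only with all plasmids.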
Background: Reporter assays use an easily measured gene product as a stand-in for the process of interest.

pIC50: −log10 of the molar value.

Data on 23 compounds can be found in US20230416228A1 (Forkhead Biotherapeutics, Inc., priority 2020, published 2023).

T1 sequence (Q12778 whole entry T24A/S256A/S319A): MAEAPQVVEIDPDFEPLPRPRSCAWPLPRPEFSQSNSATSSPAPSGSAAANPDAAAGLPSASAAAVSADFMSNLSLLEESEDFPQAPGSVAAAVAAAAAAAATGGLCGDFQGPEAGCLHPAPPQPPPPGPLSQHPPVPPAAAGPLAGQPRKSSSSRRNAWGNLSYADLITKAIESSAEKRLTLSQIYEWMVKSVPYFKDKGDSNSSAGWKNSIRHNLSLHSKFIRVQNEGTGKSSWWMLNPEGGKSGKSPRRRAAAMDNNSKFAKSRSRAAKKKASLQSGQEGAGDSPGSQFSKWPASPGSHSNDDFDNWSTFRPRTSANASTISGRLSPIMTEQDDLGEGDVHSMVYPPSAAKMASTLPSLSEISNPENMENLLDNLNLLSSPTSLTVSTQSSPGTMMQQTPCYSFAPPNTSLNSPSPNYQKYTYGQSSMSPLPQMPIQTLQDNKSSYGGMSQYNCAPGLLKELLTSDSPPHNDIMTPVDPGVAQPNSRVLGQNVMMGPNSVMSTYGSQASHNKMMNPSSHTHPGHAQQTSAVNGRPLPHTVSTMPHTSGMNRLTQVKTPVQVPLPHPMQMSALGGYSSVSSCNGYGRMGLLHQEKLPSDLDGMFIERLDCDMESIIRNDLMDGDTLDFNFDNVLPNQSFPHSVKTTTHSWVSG

`Cn1nc(NC(=O)c2ccc(N3C[C@H]4COC[C@H]4C3)nc2)cc1-c1nc2ccccc2[nH]1` [Compound A-267, 6-[(3aR,6aS)-1,3,3a,4,6,6a-hexahydrofuro[3,4-c]pyrrol-5-yl]-N-[5-(1H-benzimidazol-2-yl)-1-methyl-pyrazol-3-yl]pyridine-3-carboxamide] had a pIC50 greater than 7.00. With `Cn1nc(NC(=O)c2ccc(N3CCC4(COC4)C3)nc2)cc1-c1nc2ccccc2[nH]1` [Compound A-268, N-[5-(1H-benzimidazol-2-yl)-1-methyl-pyrazol-3-yl]-6-(2-oxa-7-azaspiro[3.4]octan-7-yl)pyridine-3-carboxamide], the pIC50 was 6.52 to 7.00. `Cn1nc(NC(=O)c2ccc(N3CCN(C(=O)CO)CC3)nc2)cc1-c1nc2ccccc2[nH]1` [Compound A-269, N-[5-(1H-benzimidazol-2-yl)-1-methyl-pyrazol-3-yl]-6-[4-(2-hydroxyacetyl)piperazin-1-yl]pyridine-3-carboxamide] showed a pIC50 of 6.52 to 7.00.

Take `Cn1nc(NC(=O)c2ccc(N3CC(CO)C3)nc2)cc1-c1nc2ccccc2[nH]1` [Compound A-270, N-[5-(1H-benzimidazol-2-yl)-1-methyl-pyrazol-3-yl]-6-[3-(hydroxymethyl)azetidin-1-yl]pyridine-3-carboxamide]: the pIC50 is 6.00 to 6.52. `COCC(=O)N1CCN(c2ccc(C(=O)Nc3cc(-c4nc5ccccc5[nH]4)n(C)n3)cn2)CC1` [Compound A-271]: the pIC50 was 6.52 to 7.00.

Regarding `COCC1CN(c2ccc(C(=O)Nc3cc(-c4nc5ccccc5[nH]4)n(C)n3)cn2)C1` [Compound A-272, N-[5-(1H-benzimidazol-2-yl)-1-methyl-pyrazol-3-yl]-6-[3-(methoxymethyl)azetidin-1-yl]pyridine-3-carboxamide], the pIC50 was greater than 7.00. Regarding `Cn1nc(NC(=O)c2ccc(N3CCC4(CCCO4)CC3)nc2)cc1-c1nc2ccccc2[nH]1` [Compound A-273, N-[5-(1H-benzimidazol-2-yl)-1-methyl-pyrazol-3-yl]-6-(1-oxa-8-azaspiro[4.5]decan-8-yl)pyridine-3-carboxamide], the pIC50 was 6.52 to 7.00. On to `Cn1nc(NC(=O)c2ccc(N3CC4(CC(O)C4)C3)nc2)cc1-c1nc2ccccc2[nH]1` [Compound A-274, N-[5-(1H-benzimidazol-2-yl)-1-methyl-pyrazol-3-yl]-6-(6-hydroxy-2-azaspiro[3.3]heptan-2-yl)pyridine-3-carboxamide], for which the pIC50 was 6.52 to 7.00. In turn, `Cn1nc(NC(=O)c2ccc(N3CC4(COC4)C3)nc2)cc1-c1nc2ccccc2[nH]1` [Compound A-275, N-[5-(1H-benzimidazol-2-yl)-1-methyl-pyrazol-3-yl]-6-(2-oxa-6-azaspiro[3.3]heptan-6-yl)pyridine-3-carboxamide] had a pIC50 of 6.52 to 7.00. For `Cn1nc(NC(=O)c2ccc(N3CCN4C(=O)OCC4C3)nc2)cc1-c1nc2ccccc2[nH]1` (centres unmarked) [Compound A-276, N-[5-(1H-benzimidazol-2-yl)-1-methyl-pyrazol-3-yl]-6-(3-oxo-5,6,8,8a-tetrahydro-1H-oxazolo[3,4-a]pyrazin-7-yl)pyridine-3-carboxamide], the pIC50 is greater than 7.00. In turn, `COc1ccc(C(=O)Nc2cc(-c3nc4cc(OCCO)ccc4[nH]3)[nH]n2)cc1Cl` [Compound A-277, 3-chloro-N-[5-[5-(2-hydroxyethoxy)-1H-benzimidazol-2-yl]-1H-pyrazol-3-yl]-4-methoxy-benzamide] had a pIC50 greater than 7.00.

In turn, `C[C@@H]1CN(c2ccc(C(=O)Nc3cc(-c4nc5ccccc5[nH]4)n(C)n3)cn2)C[C@H](C)N1CCO` [Compound A-278, N-[5-(1H-benzimidazol-2-yl)-1-methyl-pyrazol-3-yl]-6-[(3R,5S)-4-(2-hydroxyethyl)-3,5-dimethyl-piperazin-1-yl]pyridine-3-carboxamide] showed a pIC50 of 6.52 to 7.00.

Compound `Cn1nc(NC(=O)c2ccc(N3CCN4CCCC4C3)nc2)cc1-c1nc2ccccc2[nH]1` (centres unmarked) [Compound A-279] showed a pIC50 greater than 7.00. Compound `Cn1nc(NC(=O)c2ccc(N3CCNC(C)(C)C3)nc2)cc1-c1nc2ccccc2[nH]1` [Compound A-280, N-[5-(1H-benzimidazol-2-yl)-1-methyl-pyrazol-3-yl]-6-(3,3-dimethyl-piperazin-1-yl)pyridine-3-carboxamide] showed a pIC50 greater than 7.00. The same measure for `Cn1nc(NC(=O)c2ccc(N3CCNC4(CC4)C3)nc2)cc1-c1nc2ccccc2[nH]1` [Compound A-281, N-[5-(1H-benzimidazol-2-yl)-1-methyl-pyrazol-3-yl]-6-(4,7-diazaspiro[2.5]octan-7-yl)pyridine-3-carboxamide]: greater than 7.00. `Cn1nc(NC(=O)c2ccc(N3CCC4(CC3)COC4)nc2)cc1-c1nc2ccccc2[nH]1` [Compound A-282, N-[5-(1H-benzimidazol-2-yl)-1-methyl-pyrazol-3-yl]-6-(2-oxa-7-azaspiro[3.5]nonan-7-yl)pyridine-3-carboxamide] gave a pIC50 greater than 7.00. `Cn1nc(NC(=O)c2ccc(N3CCC(O)(CCO)CC3)nc2)cc1-c1nc2ccccc2[nH]1` [Compound A-283, N-[5-(1H-benzimidazol-2-yl)-1-methyl-pyrazol-3-yl]-6-[4-hydroxy-4-(2-hydroxyethyl)-1-piperidyl]pyridine-3-carboxamide] showed a pIC50 greater than 7.00. For the compound `Cn1nc(NC(=O)c2ccc(N3CC4CC(C3)N4)nc2)cc1-c1nc2ccccc2[nH]1` [Compound A-284, N-[5-(1H-benzimidazol-2-yl)-1-methyl-pyrazol-3-yl]-6-(3,6-diazabicyclo[3.1.1]heptan-3-yl)pyridine-3-carboxamide], the negative logarithm of the IC50 (pIC50) was 6.52 to 7.00. Consider `Cn1nc(NC(=O)c2ccc(N3C4CCC3COC4)nc2)cc1-c1nc2ccccc2[nH]1` [Compound A-285, N-[5-(1H-benzimidazol-2-yl)-1-methyl-pyrazol-3-yl]-6-(3-oxa-8-azabicyclo[3.2.1]octan-8-yl)pyridine-3-carboxamide], for which the pIC50 was greater than 7.00. Compound `Cn1nc(NC(=O)c2ccc(N3CC4CCC(C3)N4)nc2)cc1-c1nc2ccccc2[nH]1` [Compound A-286, N-[5-(1H-benzimidazol-2-yl)-1-methyl-pyrazol-3-yl]-6-(3,8-diazabicyclo[3.2.1]octan-3-yl)pyridine-3-carboxamide] had a pIC50 of 6.52 to 7.00. `Cn1nc(NC(=O)c2ccc(N3CCN(C(=O)COCCO)CC3)nc2)cc1-c1nc2ccccc2[nH]1` [Compound A-287, N-[5-(1H-benzimidazol-2-yl)-1-methyl-pyrazol-3-yl]-6-[4-[2-(2-hydroxyethoxy)acetyl]piperazin-1-yl]pyridine-3-carboxamide]: the pIC50 is 6.00 to 6.52.

Take `C[C@H]1CN(c2ccc(C(=O)Nc3cc(-c4nc5ccccc5[nH]4)n(C)n3)cn2)C[C@H](C)N1` [Compound A-288, N-[5-(1H-benzimidazol-2-yl)-1-methyl-pyrazol-3-yl]-6-[(3S,5S)-3,5-dimethylpiperazin-1-yl]pyridine-3-carboxamide]: the pIC50 is 6.52 to 7.00. Take `Cn1nc(NC(=O)c2ccc(N3CCN(C(=O)CN)CC3)nc2)cc1-c1nc2ccccc2[nH]1` [Compound A-289, 6-[4-(2-aminoacetyl)piperazin-1-yl]-N-[5-(1H-benzimidazol-2-yl)-1-methyl-pyrazol-3-yl]pyridine-3-carboxamide]: the negative-log IC50 (pIC50) is 6.52 to 7.00.

The term pIC50 denotes −log10 of the IC50, conventionally taken in molar units. A high value points to a small IC50.
